Measurements taken from ChEMBL document CHEMBL3351293, “Design, synthesis and in vitro evaluation of novel uni- and bivalent ligands for the cannabinoid receptor type 1 with variation of spacer length and structure” (Bioorg Med Chem Lett, 2014).

Key:
[1] = target: T1, Cannabinoid receptor 1 (Homo sapiens, UniProt P21554); test: Inverse agonist activity at human CB1 receptor expressed in Sf9 cells coexpressing Gbeta1gamma2 and RSG4 assessed as degradation of [gamma-33P]GTP after 20 mins by steady-state GTPase assay; format: cell-based
[2] = target: Cannabinoid receptor 2 (Homo sapiens, UniProt P34972); test: Displacement of [3H] CP-55,940 from human CB2 receptor expressed in HEK cells at 10 uM after 3 hrs by scintillation counting; format: cell-based; details: for inhibition: HEK293
[3] = target: T1, Cannabinoid receptor 1; details: Sf9, at 30 µM
Description: Inverse agonist activity at human CB1 receptor expressed in Sf9 cells coexpressing Gbeta1gamma2 and RSG4 assessed as degradation of [gamma-33P]GTP at 30 uM after 20 mins by steady-state GTPase assay relative to control

[4] = target: T1, Cannabinoid receptor 1; details: Sf9, 30 uM
Description: Agonist activity at human CB1 receptor expressed in Sf9 cells coexpressing Gbeta1gamma2 and RSG4 assessed as degradation of [gamma-33P]GTP at 30 uM after 20 mins by steady-state GTPase assay relative to control

T1 sequence (P21554 whole entry): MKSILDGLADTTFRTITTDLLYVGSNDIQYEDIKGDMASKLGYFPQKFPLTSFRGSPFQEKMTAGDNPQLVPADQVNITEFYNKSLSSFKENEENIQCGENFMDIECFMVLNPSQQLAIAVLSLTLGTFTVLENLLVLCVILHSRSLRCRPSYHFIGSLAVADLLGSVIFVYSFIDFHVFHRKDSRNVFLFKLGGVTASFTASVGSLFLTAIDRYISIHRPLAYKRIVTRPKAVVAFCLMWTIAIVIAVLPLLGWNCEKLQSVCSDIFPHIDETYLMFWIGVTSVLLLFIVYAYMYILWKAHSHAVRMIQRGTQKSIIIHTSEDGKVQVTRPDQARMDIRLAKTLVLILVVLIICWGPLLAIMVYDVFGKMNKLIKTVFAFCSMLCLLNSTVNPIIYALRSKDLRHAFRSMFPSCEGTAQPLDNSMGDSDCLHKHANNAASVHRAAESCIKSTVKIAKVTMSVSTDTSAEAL
Chain of Cannabinoid receptor 2 (P34972 whole entry): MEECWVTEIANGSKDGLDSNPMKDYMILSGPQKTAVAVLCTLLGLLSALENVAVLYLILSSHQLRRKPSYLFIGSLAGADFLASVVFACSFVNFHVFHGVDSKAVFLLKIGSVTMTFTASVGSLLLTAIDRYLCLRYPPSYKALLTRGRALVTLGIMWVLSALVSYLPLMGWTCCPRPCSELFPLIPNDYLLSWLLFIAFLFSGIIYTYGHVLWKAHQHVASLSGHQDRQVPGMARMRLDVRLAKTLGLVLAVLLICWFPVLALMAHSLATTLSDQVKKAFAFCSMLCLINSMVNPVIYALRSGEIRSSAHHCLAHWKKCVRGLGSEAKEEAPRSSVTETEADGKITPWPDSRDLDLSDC

Structure (SMILES)	EC50 [1] [µM]	inhibition [2] [%]	Emax [3] [%]	Ki [2] [µM]	Emax [4] [%]
Cc1c(C(=O)NCCCCNC(=O)C2CCCCC2)nn(-c2ccc(Cl)cc2Cl)c1-c1ccc(Cl)cc1	0.11	24.1	91.5		
Cc1c(C(=O)NCCCCNCc2ccc(CNCCCCNC(=O)c3nn(-c4ccc(Cl)cc4Cl)c(-c4ccc(Cl)cc4)c3C)cc2)nn(-c2ccc(Cl)cc2Cl)c1-c1ccc(Cl)cc1	2.95	102	93.2	2.4	
Cc1c(C(=O)NCCCCNCc2ccc(C(=O)NCCCCNC(=O)c3nn(-c4ccc(Cl)cc4Cl)c(-c4ccc(Cl)cc4)c3C)cc2)nn(-c2ccc(Cl)cc2Cl)c1-c1ccc(Cl)cc1	1.91	23	67.4		
Cc1c(C(=O)NN2CCCCC2)nn(-c2ccc(Cl)cc2Cl)c1-c1ccc(I)cc1			100		
Cc1c(C(=O)NCCCCCCCCNC(=O)[C@@H]2CCC[C@@H](C(=O)NCCCCCCCCNC(=O)c3nn(-c4ccc(Cl)cc4Cl)c(-c4ccc(Cl)cc4)c3C)C2)nn(-c2ccc(Cl)cc2Cl)c1-c1ccc(Cl)cc1	7.6	18.8	45.5		
Cc1c(C(=O)NCCCCNC(=O)[C@@H]2CCC[C@@H](C(=O)NCCCCNC(=O)c3nn(-c4ccc(Cl)cc4Cl)c(-c4ccc(Cl)cc4)c3C)C2)nn(-c2ccc(Cl)cc2Cl)c1-c1ccc(Cl)cc1 (relative stereo)	8.55	41.1	63		
Cc1c(C(=O)NCCCCNC(=O)[C@H]2CC[C@@H](C(=O)NCCCCNC(=O)c3nn(-c4ccc(Cl)cc4Cl)c(-c4ccc(Cl)cc4)c3C)CC2)nn(-c2ccc(Cl)cc2Cl)c1-c1ccc(Cl)cc1	9.66	25.9	61.9		
CCCCCCC(C)(C)c1ccc([C@@H]2C[C@H](O)CC[C@H]2CCCO)c(O)c1					67.4
Cc1c(C(=O)NCCCCCCCCNC(=O)[C@H]2CC[C@H](C(=O)NCCCCCCCCNC(=O)c3nn(-c4ccc(Cl)cc4Cl)c(-c4ccc(Cl)cc4)c3C)CC2)nn(-c2ccc(Cl)cc2Cl)c1-c1ccc(Cl)cc1	9.55	14.5	38.8		
Cc1c(C(=O)NCCCCCCCCNC(=O)c2ccc(C(=O)NCCCCCCCCNC(=O)c3nn(-c4ccc(Cl)cc4Cl)c(-c4ccc(Cl)cc4)c3C)cc2)nn(-c2ccc(Cl)cc2Cl)c1-c1ccc(Cl)cc1	40.7	9.7	29.3		
Cc1c(C(=O)NCCCCCCCCN)nn(-c2ccc(Cl)cc2Cl)c1-c1ccc(Cl)cc1	0.112	9.5	92.8		
Cc1c(C(=O)NCCCCNC(=O)[C@H]2CC[C@H](C(=O)NCCCCNC(=O)c3nn(-c4ccc(Cl)cc4Cl)c(-c4ccc(Cl)cc4)c3C)CC2)nn(-c2ccc(Cl)cc2Cl)c1-c1ccc(Cl)cc1		17.6			
Cc1c(C(=O)NCCCCN)nn(-c2ccc(Cl)cc2Cl)c1-c1ccc(Cl)cc1	2.82	31.8	86.9		
Cc1c(C(=O)NCCCCNC(=O)[C@@H]2CCC[C@H](C(=O)NCCCCNC(=O)c3nn(-c4ccc(Cl)cc4Cl)c(-c4ccc(Cl)cc4)c3C)C2)nn(-c2ccc(Cl)cc2Cl)c1-c1ccc(Cl)cc1	24.3	19.8	38.2		
Cc1c(C(=O)NCCCCNCc2ccccc2)nn(-c2ccc(Cl)cc2Cl)c1-c1ccc(Cl)cc1	0.661	85.4	92.5	12.7	
Cc1c(C(=O)NCCCCNC(=O)c2ccccc2)nn(-c2ccc(Cl)cc2Cl)c1-c1ccc(Cl)cc1	0.776	25.8	94		
Cc1c(C(=O)NCCCCCCCN(CCCCCCCNC(=O)c2nn(-c3ccc(Cl)cc3Cl)c(-c3ccc(Cl)cc3)c2C)Cc2ccccc2)nn(-c2ccc(Cl)cc2Cl)c1-c1ccc(Cl)cc1	3.85	22.6	67.5		

Structure (SMILES)	EC50 [1] [µM]	inhibition [2] [%]	Emax [3] [%]	Ki [2] [µM]	Emax [4] [%]
Cc1c(C(=O)NCCCCCCCCNC(=O)[C@H]2CCCC[C@@H]2C(=O)NCCCCCCCCNC(=O)c2nn(-c3ccc(Cl)cc3Cl)c(-c3ccc(Cl)cc3)c2C)nn(-c2ccc(Cl)cc2Cl)c1-c1ccc(Cl)cc1 (relative stereo)		10.5	14.3		
Cc1c(C(=O)NCCCCNC(=O)c2ccc(C(=O)NCCCCNC(=O)c3nn(-c4ccc(Cl)cc4Cl)c(-c4ccc(Cl)cc4)c3C)cc2)nn(-c2ccc(Cl)cc2Cl)c1-c1ccc(Cl)cc1	15	24.3	50.2		
Cc1c(C(=O)NCCCCCCCCNC(=O)[C@@H]2CCC[C@H](C(=O)NCCCCCCCCNC(=O)c3nn(-c4ccc(Cl)cc4Cl)c(-c4ccc(Cl)cc4)c3C)C2)nn(-c2ccc(Cl)cc2Cl)c1-c1ccc(Cl)cc1	3.16	10.3	33.6		
Cc1c(C(=O)NCCCCCCCCNCc2ccccc2)nn(-c2ccc(Cl)cc2Cl)c1-c1ccc(Cl)cc1	0.123	93.9	93.8	31	
Cc1c(C(=O)NCCCCCCCCNC(=O)C23CC4CC(C2)CC(C(=O)NCCCCCCCCNC(=O)c2nn(-c5ccc(Cl)cc5Cl)c(-c5ccc(Cl)cc5)c2C)(C4)C3)nn(-c2ccc(Cl)cc2Cl)c1-c1ccc(Cl)cc1	7.24	4.1	34.7		
Cc1c(C(=O)NCCCCCCCCNC(=O)C2CCCCC2)nn(-c2ccc(Cl)cc2Cl)c1-c1ccc(Cl)cc1	1.1	20.2	78.8		
Cc1c(C(=O)NCCCCNCc2cccc(C(=O)NCCCCNC(=O)c3nn(-c4ccc(Cl)cc4Cl)c(-c4ccc(Cl)cc4)c3C)c2)nn(-c2ccc(Cl)cc2Cl)c1-c1ccc(Cl)cc1	1.62	15.3	78.1		
Cc1c(C(=O)NCCCCNC(=O)C23CC4CC(C2)CC(C(=O)NCCCCNC(=O)c2nn(-c5ccc(Cl)cc5Cl)c(-c5ccc(Cl)cc5)c2C)(C4)C3)nn(-c2ccc(Cl)cc2Cl)c1-c1ccc(Cl)cc1	16.2	15.8	66.4		
Cc1c(C(=O)NCCCCCCCCNC(=O)c2ccccc2)nn(-c2ccc(Cl)cc2Cl)c1-c1ccc(Cl)cc1	0.501	21.4	80.2		
Cc1c(C(=O)NCCCCCCCCNC(=O)[C@H]2CC[C@@H](C(=O)NCCCCCCCCNC(=O)c3nn(-c4ccc(Cl)cc4Cl)c(-c4ccc(Cl)cc4)c3C)CC2)nn(-c2ccc(Cl)cc2Cl)c1-c1ccc(Cl)cc1	8.71	27.3	62.4		
Cc1c(C(=O)NCCCCCCCNCCCCCCCNC(=O)c2nn(-c3ccc(Cl)cc3Cl)c(-c3ccc(Cl)cc3)c2C)nn(-c2ccc(Cl)cc2Cl)c1-c1ccc(Cl)cc1	0.871	34.4	89.2		
Cc1c(C(=O)NCCCCNC(=O)c2cccc(C(=O)NCCCCNC(=O)c3nn(-c4ccc(Cl)cc4Cl)c(-c4ccc(Cl)cc4)c3C)c2)nn(-c2ccc(Cl)cc2Cl)c1-c1ccc(Cl)cc1		0	19.5		
Cc1c(C(=O)NCCCCCCNC(=O)c2cccc(C(=O)NCCNC(=O)c3nn(-c4ccc(Cl)cc4Cl)c(-c4ccc(Cl)cc4)c3C)c2)nn(-c2ccc(Cl)cc2Cl)c1-c1ccc(Cl)cc1		3.2	43.6		
Cc1c(C(=O)NCCCCNCc2cccc(CNCCCCNC(=O)c3nn(-c4ccc(Cl)cc4Cl)c(-c4ccc(Cl)cc4)c3C)c2)nn(-c2ccc(Cl)cc2Cl)c1-c1ccc(Cl)cc1	8.85	7	76.8		
Cc1c(C(=O)NN2CCCCC2)nn(-c2ccc(Cl)cc2Cl)c1-c1ccc(Cl)cc1		9			
Cc1c(C(=O)NCCCCCCCCNC(=O)c2cccc(C(=O)NCCCCCCCCNC(=O)c3nn(-c4ccc(Cl)cc4Cl)c(-c4ccc(Cl)cc4)c3C)c2)nn(-c2ccc(Cl)cc2Cl)c1-c1ccc(Cl)cc1	13.5	29.1	59.1		
Cc1c(C(=O)NCCCCNC(=O)[C@H]2CCCC[C@@H]2C(=O)NCCCCNC(=O)c2nn(-c3ccc(Cl)cc3Cl)c(-c3ccc(Cl)cc3)c2C)nn(-c2ccc(Cl)cc2Cl)c1-c1ccc(Cl)cc1 (relative stereo)	10.5	14.6	58.4		
